Values after ≈ are worked out from the molar mass of the structure shown.
How the values were obtained:
THP-1 [1] = test: Induction of ABCA1 mRNA upregulation in human THP1 cells relative to T0901317; type: functional
[2] = Half life in mouse liver microsomes; type: ADME, Microsome
[3] = Half life in rat liver microsomes; type: ADME, Microsome
[4] = Half life in human liver microsomes; type: ADME, Microsome
HepG2 [5] = test: Increase in cellular triglyceride level in human HepG2 cells relative to T0901317; type: functional
[6] = Solubility of the compound; type: physicochemical
THP-1 [7] = test: cells; details: Homo sapiens
HepG2 [8] = test: cells; details: Homo sapiens
[9] = target: T1, Oxysterols receptor LXR-alpha (Homo sapiens, UniProt Q13133)
T1 sequence (Q13133 whole entry): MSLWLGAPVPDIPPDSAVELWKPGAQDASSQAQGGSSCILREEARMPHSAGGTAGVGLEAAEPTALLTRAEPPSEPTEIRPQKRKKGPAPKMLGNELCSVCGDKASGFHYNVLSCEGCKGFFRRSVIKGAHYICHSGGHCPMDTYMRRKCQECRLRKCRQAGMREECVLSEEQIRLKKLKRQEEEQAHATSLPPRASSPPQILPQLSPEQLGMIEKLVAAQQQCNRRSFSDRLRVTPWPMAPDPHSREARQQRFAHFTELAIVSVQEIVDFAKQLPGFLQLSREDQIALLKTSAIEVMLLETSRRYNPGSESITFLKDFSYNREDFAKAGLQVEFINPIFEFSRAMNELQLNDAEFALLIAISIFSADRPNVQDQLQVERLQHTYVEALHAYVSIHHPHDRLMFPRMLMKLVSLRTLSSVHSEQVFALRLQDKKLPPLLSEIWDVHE

[10] = target: T2, Oxysterols receptor LXR-beta (Homo sapiens, UniProt P55055)
[11] = target: T1, Oxysterols receptor LXR-alpha; details: huh-7
[12] = target: T2, Oxysterols receptor LXR-beta; details: huh-7
[13] = Cmax in C57 mouse at 2.5 mg/kg, po; type: ADME, organism-based; parameters: dose 2.5 mg/kg, route oral; details: in vivo
[14] = AUC (0 to last) in C57 mouse at 2.5 mg/kg, po; type: ADME, organism-based; parameters: time 0 - last, dose 2.5 mg/kg, route oral; details: plasma
[15] = Tmax in C57 mouse at 2.5 mg/kg, po; type: ADME, organism-based; parameters: dose 2.5 mg/kg, route oral; details: in vivo
[16] = AUC (0 to last) in C57 mouse at 10 mg/kg, po; type: ADME, organism-based; parameters: dose 10 mg/kg, route oral, time 0 - last; details: plasma
[17] = Tmax in C57 mouse at 10 mg/kg, po; type: ADME, organism-based; parameters: dose 10 mg/kg, route oral; details: in vivo
[18] = Cmax in C57 mouse at 10 mg/kg, po; type: ADME, organism-based; parameters: dose 10 mg/kg, route oral; details: in vivo
HepG2 [19] = test: Cytotoxic effect as decreased triglyceride level in HepG2 cells after 3 uM treatment; type: cell-based; details: human, hepg2, 3 µM
[20] = Half life in C57 mouse at 10 mg/kg, po; type: ADME, organism-based; parameters: dose 10 mg/kg, route oral; details: in vivo
HepG2 [21] = test: Cytotoxic effect as decreased triglyceride level in HepG2 cells after 10 uM treatment; type: cell-based; details: human, hepg2, 10 µM

T2 sequence (P55055 whole entry): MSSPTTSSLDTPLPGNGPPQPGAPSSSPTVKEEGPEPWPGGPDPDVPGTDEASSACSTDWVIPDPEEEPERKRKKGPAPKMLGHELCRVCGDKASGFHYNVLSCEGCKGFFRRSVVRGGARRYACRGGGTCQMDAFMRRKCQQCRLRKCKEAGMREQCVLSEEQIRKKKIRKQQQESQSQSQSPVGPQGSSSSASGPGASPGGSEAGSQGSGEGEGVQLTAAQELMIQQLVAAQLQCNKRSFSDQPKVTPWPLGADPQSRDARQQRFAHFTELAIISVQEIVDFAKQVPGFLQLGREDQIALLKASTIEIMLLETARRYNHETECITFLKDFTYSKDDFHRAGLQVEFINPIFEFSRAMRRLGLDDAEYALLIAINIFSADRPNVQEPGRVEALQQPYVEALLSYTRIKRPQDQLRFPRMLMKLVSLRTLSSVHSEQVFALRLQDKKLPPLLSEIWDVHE

Row | SMILES | Efficacy (THP-1 [1]) [%] | half-life [2] [min] | half-life [3] [min] | half-life [4] [min] | Efficacy (HepG2 [5]) [%] | solubility [6] [µg/mL] | EC50 (THP-1 [7]) [nM] | EC50 (HepG2 [8]) [nM] | further results
1 | O=S(=O)(c1ccccc1)N(CC(F)(F)F)c1ccc(C(O)(C(F)(F)F)C(F)(F)F)cc1 [T091317] | 100 | 30 | 30 | 30 |  |  |  |  | 
2 | CS(=O)(=O)c1cccc(Oc2cccc(-c3c(CN4CCCCC4)nc4c(C(F)(F)F)cccn34)c2)c1 | 100 | 2 | 5 | 3 | 26 | 73 (≈ 138 µM) | 44 | 128 | 
3 | CS(=O)(=O)c1cccc(Oc2cccc(-c3c(Cc4ccccc4)nc4c(C(F)(F)F)cccn34)c2)c1 | 105 | 2 | 7 | 19 | 81 | 3 (≈ 5.74 µM) | 120 | 65 | 
4 | CC(C)c1nc2c(C(F)(F)F)cccn2c1-c1ccc(-c2ccc(S(C)(=O)=O)cc2)cc1 |  |  |  |  |  |  |  |  | IC50 [9]: > 1000 nM; IC50 [10]: > 1000 nM; EC50 [11]: Not Active; EC50 [12]: Not Active
5 | CC(C)c1nc2c(C(F)(F)F)cccn2c1-c1ccc(-c2cccc(S(C)(=O)=O)c2)cc1 |  |  |  |  |  |  |  |  | EC50 [12]: Not Active
6 | Cc1cnc2c(C(F)(F)F)cccc2c1-c1cccc(Oc2cccc(S(C)(=O)=O)c2)c1 |  |  |  |  |  | < 1 |  |  | Cmax [13]: 457 ng/mL; AUC(0-t) [14]: 1690 ng·h/mL; Tmax [15]: 120 min
7 | CCc1nc2c(C(F)(F)F)cccn2c1-c1cccc(Oc2cccc(S(C)(=O)=O)c2)c1 | 65 | 20 | 30 | 30 | 38 | 228 (≈ 495 µM) | 243 | 227 | 
8 | CC(C)c1nc2c(C(F)(F)F)cccn2c1-c1cccc(OCc2ccc(S(C)(=O)=O)cc2)c1 |  |  |  |  |  |  |  |  | IC50 [9]: > 1000 nM; IC50 [10]: > 1000 nM
9 | Cc1nc2c(C(F)(F)F)cccc2n1-c1cccc(Oc2cccc(S(C)(=O)=O)c2)c1 |  |  |  |  |  | 214 (≈ 479 µM) |  |  | AUC(0-t) [16]: 8940 ng·h/mL; Tmax [17]: 120 min; Cmax [18]: 614 ng/mL
10 | CS(=O)(=O)c1cccc(Oc2cccc(-c3c(CN4CCSC4)nc4c(C(F)(F)F)cccn34)c2)c1 | 98 | 3 | 23 | 6 | 36 | 1 (≈ 1.87 µM) | 10 | 42 | 
11 | Cc1nc2c(C(F)(F)F)cccn2c1-c1cccc(Oc2cccc(S(C)(=O)=O)c2)c1 | 99 | 30 | 30 | 30 | 8 | > 100 | 125 | 72 | Decreased_triglyceride (HepG2 [19]): Cytotoxic potential; AUC(0-t) [16]: 4670 ng·h/mL; Tmax [17]: 15 min; half-life [20]: 270 min; Cmax [18]: 1140 ng/mL
12 | CCS(=O)(=O)c1cccc(Oc2cccc(-c3c(C)nc4c(C(F)(F)F)cccn34)c2)c1 | 100 | 30 | 30 | 21 |  | 68 (≈ 148 µM) | 130 |  | Decreased_triglyceride (HepG2 [19]): Cytotoxic potential; Decreased_triglyceride (HepG2 [21]): Cytotoxic potential; AUC(0-t) [16]: 7790 ng·h/mL; Tmax [17]: 60 min; half-life [20]: 366 min; Cmax [18]: 1420 ng/mL

Source: ChEMBL document CHEMBL1153237, “3-(3-Aryloxyaryl)imidazo[1,2-a]pyridine sulfones as liver X receptor agonists” (Bioorg Med Chem Lett, 2010)
